These results are taken from paper PMC5923171, “Novel Zinc-Attenuating Compounds as Potent Broad-Spectrum Antifungal Agents with In Vitro and In Vivo Efficacy” (Antimicrobial Agents and Chemotherapy, 2018).

The structures appear in SMILES notation. Where two headings read alike, the source gives them in different places.

One experiment concerns C. albicans. Nature of the experiment: Resistance study (repeated exposure). It is filed as cell-based, Candida albicans. To be noted: SDwoz medium, 36-day period, 22 passages. On the procedure: The propensity for resistance development was investigated as also described previously ([41]), but with the following modifications. […] Over a 36-day period, culture aliquots of 100 μl were periodically (every 1 to 2 days) transferred (passaged) to new culture tubes with 900 μl of fresh medium and fresh compound. […] Cells were passaged a total of 22 times, and cultures were periodically tested for antifungal susceptibility by following the protocol for antifungal susceptibility testing, as described above.

For the next experiment, the system named is Candida albicans SC5314. Nature of the experiment: In vivo fungal kidney burden candidiasis model. More on the design: species or system BALB/c mice. To be noted: fluconazole 3 mg/kg p.o. On the procedure: A murine model of systemic candidiasis was established according to a previously described method ([44]). BALB/c mice were infected with a 0.1-ml inoculum (1 × 10^5 to 5 × 10^5 CFU) of Candida albicans SC5314 cells by the intravenous route on day 0. Compounds were tested at doses of 60 mg/kg. Administration of compound was initiated 24 h prior (day −1) to infection (day 0) by the intraperitoneal route, dosing twice a day for 4 days (day −1 to day 2). ZAC307 was also evaluated with administration of the compounds given after the infection at day 0 (no pretreatment) and following dosing twice a day for 3 days (days 0 to 2). Fluconazole was used as a comparator drug. Six mice were used for each group, and the untreated control group was exposed to the vehicle alone. ZAC989 and ZAC307 were formulated by taking 60 mg of compound and adding this to 2 ml and 4 ml of 0.1 N NaOH, respectively. After mixing and sonication of the resulting solutions, 4 ml of purified water was added. The pH was adjusted to 9.0 with 0.1 N HCl solution, followed by the addition of 90 mg of NaCl. The solutions were then diluted to 10 ml and filtered through a 0.22-μm polyvinylidene difluoride (PVDF) filter. Sample collection and processing were performed as follows. Twelve hours after the last dose, all treated and untreated animals were sacrificed by cervical dislocation and kidneys were collected in 3 ml of sterile normal saline. The samples were homogenized, serially diluted, and plated on Sabouraud dextrose agar (SDA). SDA plates were incubated for 24 to 48 h at 35°C, and CFU were enumerated and reported as log CFU/kidney. The endpoint was mean log CFU of fungi in kidneys of treated animals compared to that of untreated animals. The study was conducted in conformance with an application submitted to the Committee for the Purpose of Control and Supervision of Experiments on Animals (CPCSEA), New Delhi, India, after approval from the Institutional Animal Ethics Committee (IAEC).

The conditions of experiment [1]: cited from earlier work.
Experiment [2] relates to C. albicans SC5314. Nature of the experiment: Antifungal susceptibility testing (MIC). It is filed as cell-based, Candida albicans. On the procedure:
(§1) Antifungal susceptibility testing was carried out as described previously ([38], [39]), with a few modifications. Briefly, for each yeast or mold growth inhibition assay, frozen stocks of yeast cells or spores were diluted to a final concentration of 0.5 × 10^5 to 2.5 × 10^5 CFU/ml in sterile water. ZAC989, ZAC307, and ZAC623 were dissolved in DMSO to 10 mM stocks from which half-log serial dilutions were prepared. Growth assays were subsequently performed by pipetting 3 μl of compound dissolved in DMSO (giving a final concentration of 1.5% DMSO), 100 μl of cell-spore suspension, and 97 μl of 2× RPMI medium (20.8 g/liter of RPMI 1640 medium, 69.06 g/liter of morpholinepropanesulfonic acid [MOPS], 36 g/liter of glucose) into a microtiter plate that was incubated for 24 h (yeasts) or 48 to 72 h (molds) at 34°C. Fungal growth was determined spectrophotometrically by optical density reading of each well at a wavelength of 492 nm on a Victor X5 (Perkin-Elmer) plate reader. […] Standard errors between repeated experiments were generally below 5%. The growth effect of exogenous addition of various divalent metals was evaluated by performing the antifungal susceptibility assay in the presence of 5 μM ZAC989 or ZAC307 and with increasing concentrations (0.003 to 50 μM) of ZnSO4, CuSO4, (NH4)2Fe(SO4)2, MgCl2, and CaCl2.

A further experiment deals with C. krusei ATCC 6258. Nature of the experiment: Antifungal susceptibility testing (MIC). The class given is cell-based, Candida krusei. To be noted: Pichia kudriavzevii, ATCC6258; at least 50% growth inhibition, RPMI, 24 h, 34°C. On the procedure:
as §1

The nature of experiment [3]: Fluorescence-based competition assay using FluoZin-3 (compound-Zn2+ dissociation constant). It is filed as binding. To be noted: FluoZin-3 competition, PBS pH 7.4, room temperature; read-out: Compound-Zn^2+ KD. As for the experimental part: The dissociation constant (Kd) of zinc to zinc-attenuating compounds was determined at room temperature using FluoZin-3 (F24194; […] Testing buffer consisted of PBS (pH 7.4) with 200 nM ZnCl2 and 500 nM FluoZin-3. In a microtiter plate, 98 μl of testing buffer was mixed with 2 μl of compound at a range of concentrations to determine the half-maximal inhibitory concentration (IC50). Testing plates were incubated for 2 min before being read at an excitation wavelength of 485 nm and an emission wavelength of 516 nm with a Fluoroskan Ascent microplate fluorometer (Thermo Fisher Scientific).

Experiment [4] has as its system C. parapsilosis ATCC 22019. The experiment is described as follows: Antifungal susceptibility testing (MIC). It is filed as cell-based, Candida parapsilosis. To be noted: Lodderomyces parapsilosis, ATCC22019; at least 50% growth inhibition, RPMI, 24 h, 34°C. On the procedure: as §1
In experiment [5] the test system is C. albicans SC5314. Nature of the experiment: Time-kill assay. The class given is cell-based, Candida albicans. To be noted: 0.5 μg/ml AMB, 3.6 μg/ml ZAC989, 4.4 μg/ml EDTA, 4.2 μg/ml TPEN; up to 24 h. As for the experimental part: C. albicans SC5314 cells (10^5 CFU/ml) were incubated in 10 ml of RPMI medium at 30°C with gentle agitation (150 rpm) in the presence of EDTA (15 μM), TPEN (10 μM), ZAC989 (10 μM), or AMB (0.5 μM). At the desired time points (0, 3, 5.5, and 24 h), a 100-μl aliquot was removed for each test condition and serially diluted (10-fold) in saline (0.9% NaCl), and 30 μl of each dilution was plated on YPD agar plates. The colony count on each YPD plate was determined after incubation at 30°C for 48 h ([40]). C. albicans cells treated with DMSO (1%, vol/vol) served as a control.

In a further experiment the test system is A. fumigatus. More on the design: method as in PMID 27401578. To be noted: monotherapy; cited from earlier work.

For `OC(Cn1cncn1)(Cn1cncn1)c1ccc(F)cc1F` [Fluconazole, fluconazole, reference compound], the “change in the MIC after repeated exposure” value with C. albicans is “significant increase in the MIC”. For the same compound, the “Mean log CFU/kidney” value in the experiment with Candida albicans SC5314 turned out to be 3.02 ± 0.22 log CFU/kidney. In addition, the “Mean log CFU/kidney reduction” value with Candida albicans SC5314 (vs untreated control) is reported as 2.78 log CFU/kidney.
Consider `COc1ccc(N(CC(=O)O)CC(=O)O)c(OCCOc2cc(-c3c4cc(F)c(=O)cc-4oc4cc(O)c(F)cc34)ccc2NCC(=O)O)c1` [FluoZin-3], for which the Kd in experiment [1] (read-out: Kd (FluoZin-3–Zn^2+)) was 15 nM.
`Cc1cc(N)n(-c2cc(N3CC[C@H](Oc4cnccc4C#N)C3)ncn2)n1` [ZAC623, 3-[(3S)-1-[6-(5-amino-3-methyl-pyrazol-1-yl)pyrimidin-4-yl]pyrrolidin-3-yl]oxypyri-dine-4-carbonitrile]: the “growth-inhibitory activity (in words)” value in the experiment with C. albicans SC5314 [2] is “did not display growth-inhibitory activity”. Further, the MIC – broadly, the lowest concentration that inhibits growth of the organism – with C. albicans SC5314 [2] (Candida albicans, SC5314, 24 h, at least 50% growth inhibition, RPMI, 24 h, 34°C, read-out: MIC) is greater than 54 µg/mL; in the experiment with C. krusei ATCC 6258, greater than 54 µg/mL; in experiment [4], greater than 54 µg/mL. The Kd in experiment [3] was greater than 6 µM.
As to `COc1cc(O)c(-c2nc3c(CNCc4ccccn4)cccc3o2)cc1OC` [Zinbo-5], the Kd in experiment [1] (read-out: affinity constant for zinc) was 2.2 nM.
As for `C[C@@H]1[C@H](O)[C@@H](C)/C=C/C=C/C=C/C=C/C=C/C=C/C=C/[C@H](O[C@@H]2O[C@H](C)[C@@H](O)[C@H](N)[C@@H]2O)C[C@@H]2O[C@](O)(C[C@@H](O)C[C@@H](O)[C@H](O)CC[C@@H](O)C[C@@H](O)CC(=O)O[C@H]1C)C[C@H](O)[C@H]2C(=O)O` [amphotericin B], the “time-kill activity (fungistatic or fungicidal)” value with C. albicans SC5314 [5] was “fungicidal activity after 3 h of exposure”.
As for `c1cnc2c(c1)ccc1cccnc12` [phenanthroline], the “survival and fungal burden” value in the experiment with A. fumigatus is “significant improvements in survival with concomitant reduction in fungal burden”.
